Measurements as given in the supplement of paper PMC10307832.

Legend:
Assay in all cases: relative viability (nuclei count vs DMSO), 5 days (fraction); higher = more cells survive
[1] = compound: Cn1cc(-c2cnn3c(N)c(Br)c([C@@H]4CCCNC4)nc23)cn1
Outline: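 Lung cancer cell lines in 1536-well plates were exposed by pinning to five library-drug doses (not always all listed) √10 apart, following an overnight hold at 37 °C. MetaXpress counted Hoechst-stained nuclei from 4× images taken after 5 days without medium change. Viability is the median ratio of treated-well to vehicle-well nuclei across plates. Plates required control CV below 25% and at least one doubling.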

[2] = compound: Cn1cc(-c2cnn3c(N)c(Br)c([C@@H]4CCCNC4)nc23)cn1 + O=C(c1cc(Cc2n[nH]c(=O)c3ccccc23)ccc1F)N1CCN(C(=O)C2CC2)CC1 [Olaparib] (partner 8 µM)
Outline: (§1)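 One day after seeding in 1536-well plates, lung cancer cell lines were dosed by pin tool. Dosing was either single-drug or a fixed anchor-drug dose plus five library-drug doses (not always all listed) in √10 steps. After 5 days, nuclei were stained in one fix-and-stain step and counted on 4× images, and relative viability is the nuclei count of treated wells over that of vehicle wells, given as the median of duplicate plates.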

[3] = compound: Cn1cc(-c2cnn3c(N)c(Br)c([C@@H]4CCCNC4)nc23)cn1 + N=C(N)NC(=N)NCCc1ccccc1 [Phenformin] (partner 250 µM)
Outline: as §1

[4] = compound: Cn1cc(-c2cnn3c(N)c(Br)c([C@@H]4CCCNC4)nc23)cn1 + CC(=O)Nc1cccc(-n2c(=O)n(C3CC3)c(=O)c3c(Nc4ccc(I)cc4F)n(C)c(=O)c(C)c32)c1 [Trametinib] (partner 0.02 µM)
Outline: as §1

Cell Line	relative viability ([1]; 0.05 µM)	relative viability ([1]; 0.1581 µM)	relative viability ([1]; 0.5 µM)	relative viability ([1]; 1.581 µM)	relative viability ([1]; 5 µM)	relative viability ([2]; first compound 0.05 µM)	relative viability ([2]; first compound 0.1581 µM)	relative viability ([2]; first compound 0.5 µM)	relative viability ([2]; first compound 1.581 µM)	relative viability ([2]; first compound 5 µM)	relative viability ([3]; first compound 0.05 µM)	relative viability ([3]; first compound 0.1581 µM)	relative viability ([3]; first compound 0.5 µM)	relative viability ([3]; first compound 1.581 µM)	relative viability ([3]; first compound 5 µM)	relative viability ([4]; first compound 0.05 µM)	relative viability ([4]; first compound 0.1581 µM)	relative viability ([4]; first compound 0.5 µM)	relative viability ([4]; first compound 1.581 µM)	relative viability ([4]; first compound 5 µM)
NCI-H2126	0.986	1.07	1	0.899	0.95	0.965	0.923	0.887	0.792	0.923	0.492	0.543	0.51	0.491	0.47	0.628	0.549	0.548	0.561	0.597
HCC-44	0.918	1.06	1.01	0.994	0.953	1.01	0.975	1	0.91	1.01	0.155	0.193	0.179	0.188	0.172	0.998	1.09	1.12	1.08	1.13
NCI-H460	0.946	1.1	0.993	0.952	0.811	0.341	0.195	0.38	0.233	0.127	0.493	0.512	0.456	0.176	0.0895	0.152	0.209	0.0974	0.0913	0.0615
SK-LU-1	1.18	0.696	0.809	0.432	0.268	0.515	0.308	0.31	0.246	0.226	0.515	0.426	0.299	0.254	0.184	0.616	0.423	0.422	0.328	0.292
NCI-H322M	0.766	0.842	0.863	0.684	0.408	0.323	0.704	0.775	0.635	0.418	0.681	0.595	0.717	0.474	0.254	0.553	0.495	0.519	0.491	0.391
EKVX	1.04	1.01	1.07	0.862	0.929	0.761	0.958	0.872	0.767	0.707	0.223	0.254	0.257	0.245	0.194	0.445	0.317	0.413	0.377	0.409
NCI-H1734	0.916	1.1	0.963	0.78	0.793	0.625	0.647	0.52	0.599	0.441	0.368	0.457	0.373	0.349	0.319	0.667	0.802	0.665	0.658	0.576
SW 900	0.87	0.881	1	0.669	0.309	0.897	0.97	0.758	0.8	0.616	0.656	0.776	0.726	0.428	0.228	0.772	0.746	0.946	0.753	0.816
NCI-H520	0.897	0.998	0.899	0.904	0.717	0.353	0.367	0.302	0.326	0.236	0.52	0.587	0.596	0.461	0.348	0.685	0.642	0.591	0.699	0.542
EPLC-272H	1	0.974	0.896	0.628	0.379	0.709	0.683	0.294	0.279	0.215	0.288	0.275	0.321	0.292	0.188	0.276	0.273	0.286	0.272	0.218
UMC-11	1.08	0.873	0.856	0.788	0.565	0.429	0.399	0.41	0.381	0.34	0.337	0.309	0.32	0.305	0.274	0.753	0.684	0.502	0.579	0.402
NCI-H1792	0.869	1.08	0.96	0.575	0.835	0.637	0.368	0.378		0.34	0.189	0.345	0.261	0.203	0.236	0.409	0.6	0.536		0.513
NCI-H1993	0.846	0.942	0.955	0.716	0.794	0.959	1.05	1.01	0.969	1.1	0.522	0.536	0.412	0.481	0.513	0.518	0.467	0.643	0.435	0.511
NCI-H596	0.985	1.15	0.887	0.916	0.766	0.633	0.596	0.622	0.655	0.621	0.865	0.825	0.729	0.561	0.691	0.899	0.832	0.886	0.768	0.832
NCI-H1793	1.07	1.12	0.927	0.91	0.786	1.02	1.08	0.921	0.718	0.472	0.322	0.465	0.435	0.328	0.252	0.451	0.36	0.367	0.481	0.458
NCI-H1395	0.813	0.713	0.926	0.548	0.45	0.432	0.445	0.395	0.376	0.372	0.44	0.41	0.435	0.359	0.358	1.22	0.544	0.883	0.569	0.444

Cell Line	relative viability ([1]; 0.05 µM)	relative viability ([1]; 0.1581 µM)	relative viability ([1]; 0.5 µM)	relative viability ([1]; 1.581 µM)	relative viability ([1]; 5 µM)	relative viability ([2]; first compound 0.05 µM)	relative viability ([2]; first compound 0.1581 µM)	relative viability ([2]; first compound 0.5 µM)	relative viability ([2]; first compound 1.581 µM)	relative viability ([2]; first compound 5 µM)	relative viability ([3]; first compound 0.05 µM)	relative viability ([3]; first compound 0.1581 µM)	relative viability ([3]; first compound 0.5 µM)	relative viability ([3]; first compound 1.581 µM)	relative viability ([3]; first compound 5 µM)	relative viability ([4]; first compound 0.05 µM)	relative viability ([4]; first compound 0.1581 µM)	relative viability ([4]; first compound 0.5 µM)	relative viability ([4]; first compound 1.581 µM)	relative viability ([4]; first compound 5 µM)
HCC-827	0.971	1.08	1.07	1.12	0.945	0.707	0.622	0.766	0.628	0.339	0.289	0.452	0.368	0.388	0.389	0.499	0.541	0.556	0.549	0.444
ChaGo-K-1	0.99	1.08	1.09	0.89	0.997	0.407	0.511	0.419	0.428	0.463	0.467	0.523	0.509	0.46	0.503	0.926	0.925	0.874	0.806	0.972
NCI-H2228	1.08	1.1	0.927	0.6	0.554	0.546	0.688	0.675	0.508	0.359	0.274	0.256	0.373	0.184	0.194	0.717	0.563	0.5	0.282	0.239
NCI-H2170	0.991	1.03	0.93	1.01	1.07	0.605	0.588	0.649	0.523	0.555	0.415	0.441	0.429	0.429	0.429	0.973	0.93	0.927	0.763	1.13
EMC-BAC-2	0.917	1.03	0.976	0.949	0.827	0.492	0.521	0.47	0.383	0.475	0.515	0.509	0.505	0.405	0.461	0.885	0.664	0.927	0.878	0.515
NCI-H522	0.927	0.986	0.879	0.828	1.02	0.674	0.749	0.68	0.523	0.633	0.69	0.625	0.642	0.669	0.664	0.852	0.754	0.699	0.802	0.579
NCI-H23	0.91	1.02	0.925	0.573	0.272	0.283	0.286	0.229	0.227	0.174	0.834	0.713	0.835	0.747	0.187	0.364	0.401	0.304	0.355	0.178
RERF-LC-KJ	1.05	1.01	1.01	0.859	0.896	1.05	0.996	0.869	0.762	0.662	0.41	0.46	0.41	0.408	0.412	0.88	0.839	0.835	0.8	0.657
NCI-H358	0.988	1.1	0.877	0.771	0.749	0.675	0.643	0.598	0.372	0.414	0.293	0.344	0.308	0.216	0.261	0.132	0.115	0.122	0.102	0.121
LC-2-ad	1.02	1.05	1.02	0.899	1.04	0.753	0.686	0.648	0.727	0.726	0.558	0.643	0.64	0.539	0.529	0.974	0.986	0.935	0.931	0.961
HCC-15	1.07	1.08	1.06	0.928	0.936	0.832	0.797	0.837	0.867	0.973	0.494	0.524	0.429	0.406	0.349	0.38	0.421	0.379	0.393	0.409
NCI-H2405	0.935	1.01	0.959	0.983	0.769	0.875	0.954	0.901	0.857	0.659	0.384	0.522	0.398	0.363	0.318	0.642	0.644	0.553	0.577	0.455
LXF-289	1.03	1.14	1.03	1.01	1.06	1.17	1.27	1.04	1.17	1.31	0.525	0.57	0.496	0.486	0.528	0.712	0.71	0.662	0.62	0.673
CAL-12T	1.03	1.06	1.08	0.68	0.265	0.835	0.752	0.824	0.398	0.268	0.478	0.585	0.537	0.377	0.155	0.288	0.346	0.315	0.33	0.278
COR-L23	1.08	1.26	1.11	0.803	0.45	0.38	0.302	0.3	0.249	0.168	0.479	0.474	0.443	0.298	0.191	0.694	0.671	0.582	0.437	0.232
NCI-H1755	1.07	1.06	1	0.887	0.882	0.964	0.989	0.931	0.989	0.847	0.629	0.664	0.603	0.652	0.597	0.783	0.802	0.744	0.782	0.765
